Source: article PMC6321166, “Screening of a Library of Oligosaccharides Targeting Lectin LecB of Pseudomonas Aeruginosa and Synthesis of High Affinity Oligoglycoclusters” (Molecules, 2018)

Experiments:
LecB = LecB (Pseudomonas aeruginosa, UniProt Q9HYN5); details: cited from earlier work
LecB from PAO1 = details: read-out: dissociation constant (Kd); cited from earlier work
LecB from PA7 = target: LecB from PA7; design: method as in PMID 27303392; details: read-out: dissociation constant (Kd); cited from earlier work
LecB from PA14 = target: LecB from PA14; design: method as in PMID 30155149; details: read-out: dissociation constant (Kd); cited from earlier work
LecB (PAO1) = target: T1, LecB (PAO1) (Pseudomonas aeruginosa, UniProt Q9HYN5); assay: Competitive assay on microarray: glycans in solution compete with immobilized fucocluster F1 for Alexa 647-LecB; type: binding; design: key: A Grade A was given for oligosaccharides that were able to reduce 80 to 40% of the fluorescent signal at a concentration of 0.1 µM and to reduce it by more than 90% at concentrations of 1, 5 and 15 µM; Grade B indicated a decrease of fluorescence by 70% to 90% at 1 µM and more than 90% at 5 and 15 µM; Grade C corresponded to a decrease of 50 to 70% for 1 µM, around 80% for 5 µM and more than 90% at 15 µM; D indicated a decrease of less than 50% for 1 µM and 80% at 5 and 15 µM; When no inhibition was observed for the four concentrations tested, the grade was E; details: glycan at 0.1, 1.0, 5.0 and 15 µM, Alexa 647-LecB 0.12 µM
T1 construct: purchased Elicityl
Procedure: F1 was immobilized on a DNA chip, thanks to its DNA sequence. The distance between two F1 on the surface was estimated to be nearly 50 nm. Therefore, the lectin LecB can only bind to one F1 glycocluster at the time. The binding of immobilized F1 to LecB was competed with each of the 156 glycans at four different concentrations (0.1, 1.0, 5.0 and 15 µM). For each glycan and each concentration, the alexa 647-LecB fluorescent signal was recorded and averaged over 16 spots, leading to four-point competition histograms (Figure 2 and Figure S2). 100% signal (see Figure 2) corresponded to the fluorescent signal measured with a reference assay under which no competition could occur. Glycans able to compete with F1 to bind LecB lead to a decrease of the fluorescent signal. Therefore, for a given glycan concentration, strong binding glycans lead to stronger decrease of the fluorescent signal so to lower percentages. Accordingly, tested glycans were classified qualitatively into 5 groups (A, B, C, D and E) depending to their ability to reduce the measured fluorescent signal at the four different concentrations (Figure 2 and Table 1). Grade A are stronger competitor than grade B which are stronger than grade C, and so on. A Grade A was given for oligosaccharides that were able to reduce 80 to 40% of the fluorescent signal at a concentration of 0.1 µM and to reduce it by more than 90% at concentrations of 1, 5 and 15 µM. Grade B indicated a decrease of fluorescence by 70% to 90% at 1 µM and more than 90% at 5 and 15 µM. Grade C corresponded to a decrease of 50 to 70% for 1 µM, around 80% for 5 µM and more than 90% at 15 µM. D indicated a decrease of less than 50% for 1 µM and 80% at 5 and 15 µM.
Cy3-oligonucleotide oligoglycoclusters F1 [46] […] In each microwell, 1.5 µL of the oligoglycocluster mixture was incubated for DNA-directed immobilization (DDI) for 3 h at 37 °C in a water-saturated atmosphere. The slides were washed with saline sodium citrate (SSC) 2× SDS 0.1% at 51 °C for 1 min, SSC 2× for 5 min and rinsed with water.
A library of 156 sugars extracted from biomass or produced by bacterial fermentation (see Supporting Information) issued from the OligoTech® (Elicityl) was screened in a competitive assay. The binding of the 156 carbohydrates was screened toward the lectin LecB (PAO1, Elicityl). Lectin was labeled as previously described using the Alexa Fluor® 647 Microscale Protein Labelling Kit (Invitrogen).
On each slide, nine oligosaccharides and α-L-fucose (as a control) were tested. The inhibitory effect of each oligosaccharide was determined at four concentrations 0.1, 1.0, 5.0 and 15 µM and at 0.5, 2.5, 5.0 and 7.5 mg/L for polymers: Aliginate, galacturonan, galactomannan, glucomannan, mannan, ulvan, xylan and the glucan. To this end, the labeled LecB lectin (0.12 µM final concentration), BSA (2%, final concentration), CaCl2 (7.5 µM, final concentration) in PBS 1× (pH 7.4) were mixed with the solutions of oligosaccharides (from the OligoTech®, Crolles, France). For each concentration, 1.5 µL of the mixture was poured into a microwell, where F1 was previously immobilized. The slides were incubated for 3 h at 37 °C in a water-saturated atmosphere. In each microwell, a competition between the two types of glycoclusters (F1) and oligosaccharide occurred to bind LecB. The microarrays were washed with 0.02% PBS-Tween20 for 5 min at room temperature. The fluorescence signal emitted by the complex glycocluster/Alexa 647-lectin was detected and an average of the mean fluorescence signal of 16 spots per glycocluster was calculated. The percentage of inhibition was calculated as follows: The alexa-647 fluorescent signal for a given sugar was normalized by the Alexa 647 fluorescent signal measured at 0.1 µM of fucose.

T1 sequence (Q9HYN5 entry or part of it): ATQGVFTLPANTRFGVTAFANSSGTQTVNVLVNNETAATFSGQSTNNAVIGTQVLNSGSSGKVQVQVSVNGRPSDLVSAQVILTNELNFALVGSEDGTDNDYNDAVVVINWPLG
LecB, sequence (Q9HYN5 entry or part of it): as above

| Molecule | Grade (ability to reduce the F1/LecB fluorescent signal) (LecB (PAO1)) | further results |
| --- | --- | --- |
| O=C[C@H](O)[C@@H](O)[C@@H](O)[C@H](O)CO [D-galactose] |  | recognition by LecB (LecB): not recognized |
| OC[C@H]1OC(O)[C@@H](O)[C@@H](O)[C@@H]1O (stereo partly drawn) [D-mannose] |  | interaction with LecB, times weaker than L-fucose (LecB): 25 times |
| CO[C@@H]1O[C@@H](C)[C@@H](O)[C@@H](O)[C@@H]1O [FucOMe] |  | Kd (LecB from PAO1): 430 nM; Kd (LecB from PA7): 2200 nM; Kd (LecB from PA14): 200 nM |
| CC(=O)N[C@H]1[C@H](O[C@H]2[C@@H](O)[C@@H](CO)OC(O)[C@@H]2O)O[C@H](CO)[C@@H](O[C@@H]2O[C@H](CO)[C@H](O)[C@H](O)[C@H]2O)[C@@H]1O[C@@H]1O[C@@H](C)[C@@H](O)[C@@H](O)[C@@H]1O (stereo partly shown) [Id. 26, Galβ1-4(Fucα1-3)GlcNAcβ1-3Gal] | C (Grade C corresponded to a decrease of 50 to 70% for 1 µM, around 80% for 5 µM and more than 90% at 15 µM) |  |
| CC(=O)N[C@H]1[C@H](O[C@H]2[C@@H](O)[C@@H](CO)OC(O)[C@@H]2O)O[C@H](CO)[C@@H](O[C@@H]2O[C@@H](C)[C@@H](O)[C@@H](O)[C@@H]2O)[C@@H]1O[C@@H]1O[C@H](CO)[C@H](O)[C@H](O)[C@H]1O (stereo partly shown) [Id. 30, Galβ1-3(Fucα1-4)GlcNAcβ1-3Gal] | A (A Grade A was given for oligosaccharides that were able to reduce 80 to 40% of the fluorescent signal at a concentration of 0.1 µM and to reduce it by more than 90% at concentrations of 1, 5 and 15 µM) |  |
| Nc1ccc(S(N)(=O)=O)cc1 [sulfonamide] |  | Kd (LecB; inhibitors of LecB): 3300 nM |
| Fucα1-2Galβ1-3(Fucα1-4)GlcNAcβ1-3Gal [Id. 32] | C (Grade C corresponded to a decrease of 50 to 70% for 1 µM, around 80% for 5 µM and more than 90% at 15 µM) |  |
| GalNAcα1-3(Fucα1-2)Gal [Id. 15] | D (D indicated a decrease of less than 50% for 1 µM and 80% at 5 and 15 µM) |  |
| Galα1-3(Galβ1-4GlcNAcβ1-3)2Galβ1-4Glc [Id. 45] | E |  |
| Galβ1-4(Fucα1-3)Glc [Id. 33] | B (Grade B indicated a decrease of fluorescence by 70% to 90% at 1 µM and more than 90% at 5 and 15 µM) |  |
| Neu5Acα2-3Galβ1-4(Fucα1-3)GlcNAcβ1-3Gal [Id. 29] | C (Grade C corresponded to a decrease of 50 to 70% for 1 µM, around 80% for 5 µM and more than 90% at 15 µM) |  |
